Results reported in patent US10544100B2, “Autophagy inhibitors” (priority 2011, dated 2020).

Tests used:
[1] = tested on: Tumor cell lines (H292, HCT116, A375, HCC1569, A498, N87, UACC1093, and UACC647); assay: Single agent tumor cell viability (ATP luminescence), 72 hours; type: cell-based; conditions: in the cell lines tested (FIGS. 1A, 1B, and C)
Description: (§1) Tumor cell lines (H292, HCT116, A375, HCC1569, A498, N87, UACC1093, and UACC647) were cultured in RPMI 1640 supplemented with 5% fetal bovine serum and housed in a 5% CO2 Incubator at 37° C.
(§2) For single agent IC50 determination, cells were plated on a 96 well microplate and allowed 24 hours to adhere. Drugs were administered to the drug plate by the following: compound stock solutions (10 mM) were added to a drug plate where a 1:10 dilution was performed. Following the dilutions, 2 μl of test compound was transferred to the corresponding wells in the cell-containing 96-well plate with 198 μl of growth media. The compounds were tested over a range of 0.1 pM-100 μM for 72 hours. Following 72 hours of continuous exposure cell viability was determined by measuring the ATP activity using a commercially available cell viability assay kit. Luminescence intensity was used to relative drug activity compared to control wells and used to graphically determine the IC50.

[2] = tested on: A375 Human melanoma tumor cells; assay: Human tumor xenograft study; type: in vivo; conditions: A375 xenograft in female mice, oral, daily for 21 days; after 25 days
Description: Female mice were inoculated subcutaneously in the right flank with 0.1 ml of a 50% RPMI/50% Matrigel™ (BD Biosciences, Bedford, Mass.) mixture containing a suspension of A375 Human melanoma tumor cells (approximately 5×10^6 cells/mouse).
When tumor reached approximately 130 mg, mice were randomized into treatment groups. Body weights were recorded when the mice were randomized and were taken twice per week (on Study Days 3 and 7 for each cycle) thereafter in conjunction with tumor measurements. Treatment began on the day of randomization. Example 10 was delivered orally in a vehicle consisting of 5% DMA, 10% propylene glycol, 20% PEG 400, and 65% sterile water. Example 10 was administered daily for 21 days.

[3] = tested on: PLX-4032 resistant melanoma cell lines UACC1093 and UACC647; assay: Combination interaction tumor cell viability (ATP luminescence), 72 hours; type: cell-based
Description: as §1
as §2, with “combination interaction experiments,” for “single agent IC50 determination,”, “(20 mM) or combination agent stock solutions (20” for “(10”, “each VT-062 and standard agent” for “test compound”, “196” for “198”, “compound and combination agent was concurrently” for “compounds were”, “IC50 of combination.” for “IC50.”

lysosome in U2OS cells = assay: Inhibitory lysosomal mechanism of action (LysoTracker Red and LAMP1 staining); type: cell-based; conditions: for LAMP1 staining / LysoTracker Red staining: at 304 for 3 hours; for LysoTracker Red staining: LysoTracker Red for the final hour; for intensity of LysoTracker Red staining (image analysis, line scan): indicating an increase in pH
Description: To determine deacidification of the lysosome, cells were incubated with LysoTracker Red, a dye that localizes to the lysosome based on the low acidity of the compartment. If the lysosome is no longer acidic, there is a loss in the amount of LysoTracker Red staining. Lysosomal inhibition was further determined by immunofluorescence of lysosome-associated membrane protein-1 (LAMP1). If the lysosome is inhibited, lysosomal turnover should decrease and an increase in the amount of LAMP1 staining would be apparent. U2OS cells were treated with Example 7 or Example 26 at […] for 3 hours, supplementing LysoTracker Red for the final hour.
Using image analysis software, the mean intensities of both the LAMP1 and LysoTracker Red staining were measured and represent altered intensity level between treatments on intensity plots. Individual points were measured using a line scan on the image analysis software, which measures the intensity across the path of a line at any given point. Not only does the presence of LAMP1 positive membranes increases, but the intensity in LAMP1 staining also increases with Example 7 and Example 26 treatment. The inverse relationship in intensity holds true for LysoTracker Red staining.

COc1ccc2nc3cc(Cl)ccc3c(NCCCCN(C)CC3CC3)c2c1 [Example 10, N^1-(6-Chloro-2-methoxyacridin-9-yl)-N^4-(cyclopropylmethyl)-N^4-methylbutane-1,4-diamine]
tumor cell growth inhibition [1]: more than 75%
tumor growth inhibition (tumor weight) [2]: greater than 50%
increase in tumor growth inhibition in combination than Example 10 alone ([3]; in combination with PLX-4032, UACC1093 and UACC647 (FIGS. 4A and 4C)): 2.6-3.25%
increase in tumor growth inhibition in combination than Example 10 alone ([3]; in combination with Temozelomide, UACC1093 and UACC647 (FIGS. 4B and 4D)): 7-30%

CCN1CCC(Nc2c3c(nc4cc(Cl)ccc24)CCCC3)CC1 [Example 26, 6-Chloro-N-(1-ethylpiperidin-4-yl)-1,2,3,4-tetrahydroacridin-9-amine]
intensity in LAMP1 staining (image analysis, line scan) (lysosome in U2OS cells): increases
LAMP1 staining (lysosome in U2OS cells): substantial increases in LAMP1 staining
LysoTracker Red staining (lysosome in U2OS cells): essentially ablated LysoTracker Red staining
intensity of LysoTracker Red staining (image analysis, line scan) (lysosome in U2OS cells): less intense LysoTracker Red staining

COc1ccc2nc3cc(Cl)ccc3c(NCCCCN3CCN(C)CC3)c2c1 [Example 7, 6-Chloro-2-methoxy-N-(4-(4-methylpiperazin-1-yl)butyl)acridin-9-amine]
intensity in LAMP1 staining (image analysis, line scan) (lysosome in U2OS cells): increases
LAMP1 staining (lysosome in U2OS cells): substantial increases in LAMP1 staining
LysoTracker Red staining (lysosome in U2OS cells): essentially ablated LysoTracker Red staining
intensity of LysoTracker Red staining (image analysis, line scan) (lysosome in U2OS cells): less intense LysoTracker Red staining
